According to patent publication US20140155410A1 (GlaxoSmithKline LLC, priority 2008, published 2014):

How the values were obtained:
GST-tagged FAK = molecular target: T1, GST-tagged FAK (Homo sapiens, UniProt Q05397); assay: Biochemical assay for FAK activity, Assay 1: phosphorylation of peptide substrate with radio-labeled ATP; details: 5 μM ATP, 30 min pre-incubation; for IC50: read-out: Assay 1 FAK TRF PXC50 (converted)
T1 construct: purchased Invitrogen PV3832
Experimental: GST-tagged (glutathione S-transferase-tagged) FAK was purchased from Invitrogen (PV3832) (www.invitrogen.com). […] To measure inhibitors of FAK, compounds were first prepared as a 10× stock in 10% DMSO. […] A 6-nM GST-FAK solution was prepared in 1.1× reaction buffer containing 44 mM HEPES, pH=7.2, 11 mM MgCl2, 2.2 mM MnCl2, 1.1 mM DTT and 0.011% Tween-20. Then, 20 μL of the 6 nM GST-FAK solution were pre-incubated with the compounds for 30 min at room temperature. […] The reaction was allowed to proceed for 90 min before being quenched with 40 μL of 1% H3PO4. A portion of the reaction mixture (60 μL) was transferred to a phospho-cellulose filter plate (Millipore; www.millipore.com, MAPHNOB50) and incubated for 20 minutes. The plate was filtrated, washed three times using 150 μL of 0.5% H3PO4 and dried at 50° C. for 30 min. After the addition of 60 μL Microscint-20 to the plate, radioactivity was measured using a TopCount (PerkinElmer; www.PerkinElmer.com).

[1] = molecular target: T2, Full length Human FAK (Flag-His-TEV-FAK1) (Homo sapiens, UniProt Q05397); assay: Biochemical assay for FAK activity, Assay 2: LANCE Ultra ULight peptide phosphorylation, 665 nm/615 nm ratio; details: Flag-His-TEV-FAK1, 10 μM ATP, 30 min pre-incubation; for IC50: read-out: Assay 2 FAK H 31284A TRF PXC50 (converted)
T2 construct: Full length Human FAK was expressed using baculovirus in Sf9 cells; made in house; host or cells: baculovirus in Sf9 cells
T2 sequence (Q05397 whole entry): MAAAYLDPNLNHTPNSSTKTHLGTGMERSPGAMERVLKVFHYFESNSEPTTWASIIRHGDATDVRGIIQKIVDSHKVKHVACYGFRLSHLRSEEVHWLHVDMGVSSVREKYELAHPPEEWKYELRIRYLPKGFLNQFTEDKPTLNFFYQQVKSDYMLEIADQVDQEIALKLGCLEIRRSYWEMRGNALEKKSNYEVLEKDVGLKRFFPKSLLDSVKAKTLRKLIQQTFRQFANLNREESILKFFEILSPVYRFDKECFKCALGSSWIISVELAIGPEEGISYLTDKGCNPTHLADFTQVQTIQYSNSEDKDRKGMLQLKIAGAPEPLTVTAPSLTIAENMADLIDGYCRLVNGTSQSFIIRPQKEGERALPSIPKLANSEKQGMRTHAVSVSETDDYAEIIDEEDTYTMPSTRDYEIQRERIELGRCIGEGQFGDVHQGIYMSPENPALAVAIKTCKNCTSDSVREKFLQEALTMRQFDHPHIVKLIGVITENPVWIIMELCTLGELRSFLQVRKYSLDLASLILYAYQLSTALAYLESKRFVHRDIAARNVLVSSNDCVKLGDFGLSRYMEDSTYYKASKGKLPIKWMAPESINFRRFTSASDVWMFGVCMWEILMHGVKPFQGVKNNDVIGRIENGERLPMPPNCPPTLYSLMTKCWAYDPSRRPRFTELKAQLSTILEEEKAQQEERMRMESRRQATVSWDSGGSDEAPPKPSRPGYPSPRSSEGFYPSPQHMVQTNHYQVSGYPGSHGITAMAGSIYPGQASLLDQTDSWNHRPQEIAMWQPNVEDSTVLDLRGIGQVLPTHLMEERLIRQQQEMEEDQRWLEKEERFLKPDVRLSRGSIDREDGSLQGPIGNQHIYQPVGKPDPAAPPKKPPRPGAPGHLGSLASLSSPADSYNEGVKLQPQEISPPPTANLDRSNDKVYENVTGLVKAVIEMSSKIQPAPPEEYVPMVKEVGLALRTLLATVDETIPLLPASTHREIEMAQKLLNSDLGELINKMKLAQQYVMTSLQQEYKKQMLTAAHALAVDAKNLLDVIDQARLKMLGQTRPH
Experimental: Flag-His-TEV-FAK1 was prepared in-house. Full length Human FAK was expressed using baculovirus in Sf9 cells with N-terminal FLAG-6×His tags followed by a TEV cleavage site (FLAG-6×His-TEV-huFAK). […] To measure inhibitors of FAK, compounds were first prepared as a 100× stock in 100% DMSO. […] After incubating for 120 minutes at room temperature, the reaction is quenched by adding 5 uL of 20 mM EDTA and 5nMEu-Anti-pTyr antibody in 1× LANCE detection buffer.

T1 sequence (Q05397 whole entry): as above

IC50 (GST-tagged FAK) [nM]	IC50 [1] [nM]	Compound	Assay 1 FAK TRF PXC50 (GST-tagged FAK)	Assay 2 FAK H 31284A TRF PXC50 [1]
2.51	5.01	CCn1nccc1Nc1cc(Nc2ccc(Cl)cc2C(=O)NC)c(Cl)cn1 [Example 12, 5-Chloro-2-({5-chloro-2-[(1-ethyl-1H-pyrazol-5-yl)amino]-4-pyridinyl}amino)-N-methylbenzamide]		
0.631	5.01	CCn1nccc1Nc1cc(Nc2ccccc2C(=O)NC)c(Cl)cn1 [Example 3, 2-({5-Chloro-2-[(1-ethyl-1H-pyrazol-5-yl)amino]-4-pyridinyl}amino)-N-methylbenzamide]		
		2-({5-Chloro-2-[(1-ethyl-1H-pyrazol-5-yl)amino]-4-pyridinyl}amino)-4,5-difluoro-N-methylbenzamide [Example 10]	9.1	8
12.6	50.1	CCNC(=O)c1ccccc1Nc1cc(Nc2cc(C)nn2CC)ncc1Cl [Example 42, 2-({5-Chloro-2-[(1-ethyl-3-methyl-1H-pyrazol-5-yl)amino]-4-pyridinyl}amino)-N-ethylbenzamide]		
1.26	5.01	CNC(=O)c1ccccc1Nc1cc(Nc2cc(C3CC3)nn2C)ncc1Cl [Example 6, 2-({5-Chloro-2-[(3-cyclopropyl-1-methyl-1H-pyrazol-5-yl)amino]-4-pyridinyl}amino)-N-methylbenzamide]		
5.01	25.1	CCNC(=O)c1ccccc1Nc1cc(Nc2cc(C)nn2C)ncc1Cl [Example 43, 2-({5-Chloro-2-[(1,3-dimethyl-1H-pyrazol-5-yl)amino]-4-pyridinyl}amino)-N-ethylbenzamide]		
0.398	5.01	CCn1nc(C)cc1Nc1cc(Nc2ccccc2C(=O)NOC)c(Cl)cn1 [Example 39, 2-({5-Chloro-2-[(1-ethyl-3-methyl-1H-pyrazol-5-yl)amino]-4-pyridinyl}amino)-N-(methyloxy)benzamide]		
2	31.6	CNC(=O)c1cc(N2CCN(CCO)CC2)ccc1Nc1cc(Cl)ncc1Cl [Example 66, 2-[(2,5-Dichloro-4-pyridinyl)amino]-5-[4-(2-hydroxyethyl)-1-piperazinyl]-N-methylbenzamide]		
0.398	1.58	CONC(=O)c1ccccc1Nc1cc(Nc2cc(C)nn2C)ncc1Cl [Example 36, 2-({5-Chloro-2-[(1,3-dimethyl-1H-pyrazol-5-yl)amino]-4-pyridinyl}amino)-N-(methyloxy)benzamide]		
251	1000	Cc1cc(Nc2cc(Nc3ccccc3C(=O)NOCCN(C)C)c(Cl)cn2)n(C)n1 [Example 38, 2-({5-Chloro-2-[(1,3-dimethyl-1H-pyrazol-5-yl)amino]-4-pyridinyl}amino)-N-{[2-(dimethylamino)ethyl]oxy}benzamide]		
		2-({5-Chloro-2-[(1,3-dimethyl-1H-pyrazol-4-yl)amino]-4-pyridinyl}amino)-N-methylbenzamide [Example 27]	8.7	8.1
63.1	5.01	CCn1nccc1Nc1cc(Nc2ccc(N3CCN(CCO)CC3)cc2C(=O)NC)c(Cl)cn1 [Example 67, 2-({5-Chloro-2-[(1-ethyl-1H-pyrazol-5-yl)amino]-4-pyridinyl}amino)-5-[4-(2-hydroxyethyl)-1-piperazinyl]-N-methylbenzamide]		
1.26	2.51	CCn1nccc1Nc1cc(Nc2ccccc2C(=O)NOC)c(Cl)cn1 [Example 40, 2-({5-Chloro-2-[(1-ethyl-1H-pyrazol-5-yl)amino]-4-pyridinyl}amino)-N-(methyloxy)benzamide]		
1	6.31	CNC(=O)c1ccccc1Nc1cc(Nc2cc(C)nn2C(C)C)ncc1Cl [Example 4, 2-[(5-Chloro-2-{[3-methyl-1-(1-methylethyl)-1H-pyrazol-5-yl]amino}-4-pyridinyl)amino]-N-methylbenzamide]		
0.398	2.51	CNC(=O)c1ccccc1Nc1cc(Nc2cc(C)nn2C)ncc1C(F)(F)F [Example 28, 2-{[2-[(1,3-Dimethyl-1H-pyrazol-5-yl)amino]-5-(trifluoromethyl)-4-pyridinyl]amino}-N-methylbenzamide]		
0.398	2	CONC(=O)c1ccccc1Nc1cc(Nc2cc(C)nn2C(C)C)ncc1Cl [Example 41, 2-[(5-Chloro-2-{[3-methyl-1-(1-methylethyl)-1H-pyrazol-5-yl]amino}-4-pyridinyl)amino]-N-(methyloxy)benzamide]		
10	63.1	CCNC(=O)c1ccccc1Nc1cc(Nc2cc(C)nn2C(C)C)ncc1Cl [Example 45, 2-[(5-Chloro-2-{[3-methyl-1-(1-methylethyl)-1H-pyrazol-5-yl]amino}-4-pyridinyl)amino]-N-ethylbenzamide]		
1.58	10	CNC(=O)c1ccccc1Nc1cc(Nc2ccnn2C)ncc1Cl [Example 2, 2-({5-Chloro-2-[(1-methyl-1H-pyrazol-5-yl)amino]-4-pyridinyl}amino)-N-methylbenzamide]		
0.794	10	CNC(=O)c1cc(F)ccc1Nc1cc(Nc2cc(C)nn2C)ncc1Cl [Example 7, 2-({5-Chloro-2-[(1,3-dimethyl-1H-pyrazol-5-yl)amino]-4-pyridinyl}amino)-5-fluoro-N-methylbenzamide]		

Compound	IC50 (GST-tagged FAK) [nM]	IC50 [1] [nM]	Assay 1 FAK TRF PXC50 (GST-tagged FAK)	Assay 2 FAK H 31284A TRF PXC50 [1]
CCn1nc(CO)cc1Nc1cc(Nc2ccccc2C(=O)NC)c(Cl)cn1 [Example 15, 2-[(5-Chloro-2-{[1-ethyl-3-(hydroxymethyl)-1H-pyrazol-5-yl]amino}-4-pyridinyl)amino]-N-methylbenzamide]	2.51	20		
CCn1nc(C)cc1Nc1cc(Nc2ccccc2C(=O)NC)c(Cl)cn1 [Example 13, 2-({5-Chloro-2-[(1-ethyl-3-methyl-1H-pyrazol-5-yl)amino]-4-pyridinyl}amino)-N-methylbenzamide]	0.501	2		
CNC(=O)c1ccccc1Nc1cc(Nc2ccnn2C2CCN(C)CC2)ncc1Cl [Example 22, 2-[(5-Chloro-2-{[1-(1-methyl-4-piperidinyl)-1H-pyrazol-5-yl]amino}-4-pyridinyl)amino]-N-methylbenzamide]	31.6	251		
CCOC(=O)c1cc(Nc2cc(Nc3ccccc3C(=O)NC)c(Cl)cn2)n(CC)n1 [Example 17, Ethyl 5-{[5-chloro-4-({2-[(methylamino)carbonyl]phenyl}amino)-2-pyridinyl]amino}-1-ethyl-1H-pyrazole-3-carboxylate]	1.26	39.8		
CNC(=O)c1ccccc1Nc1cc(Nc2cc(C)nn2CCO)ncc1Cl [Example 16, 2-[(5-Chloro-2-{[1-(2-hydroxyethyl)-3-methyl-1H-pyrazol-5-yl]amino}-4-pyridinyl)amino]-N-methylbenzamide]	1.26	20		
CNC(=O)c1ccccc1Nc1cc(Nc2cc(-c3ccccc3)nn2C)ncc1Cl [Example 1, 2-[5-Chloro-2-(2-methyl-53-ylamino)-pyridin-4-ylamino]-N-methyl-benzamide]	2	15.8		
CCn1nc(C)cc1Nc1cc(Nc2ccccc2C(=O)NC)c(C(F)(F)F)cn1 [Example 32, 2-{[2-[(1-Ethyl-3-methyl-1H-pyrazol-5-yl)amino]-5-(trifluoromethyl)-4-pyridinyl]amino}-N-methylbenzamide]	0.398	1		
CNC(=O)c1ccccc1Nc1cc(Nc2cc(C)nn2CCN(C)C)ncc1Cl [Example 23, 2-{[5-Chloro-2-({1-[2-(dimethylamino)ethyl]-3-methyl-1H-pyrazol-5-yl}amino)-4-pyridinyl]amino}-N-methylbenzamide]	79.4	200		
CCn1nc(C(=O)N(C)CCN(C)C)cc1Nc1cc(Nc2ccccc2C(=O)NC)c(Cl)cn1 [Example 25, 5-{[5-Chloro-4-({2-[(methylamino)carbonyl]phenyl}amino)-2-pyridinyl]amino}-N-[2-(dimethylamino)ethyl]-1-ethyl-N-methyl-1H-pyrazole-3-carboxamide]	2.51	31.6		
CCn1nc(C(=O)NC)cc1Nc1cc(Nc2ccccc2C(=O)NC)c(Cl)cn1 [Example 20, 5-{[5-Chloro-4-({2-[(methylamino)carbonyl]phenyl}amino)-2-pyridinyl]amino}-1-ethyl-N-methyl-1H-pyrazole-3-carboxamide]	10	39.8		
CNC(=O)c1ccccc1Nc1cc(Nc2cc(C)nn2CC(F)(F)F)ncc1Cl [Example 21, 2-[(5-Chloro-2-{[3-methyl-1-(2,2,2-trifluoroethyl)-1H-pyrazol-5-yl]amino}-4-pyridinyl)amino]-N-methylbenzamide]	3.16	63.1		
